Laboratory results reported in PMC5610524, “Tools for the Individualized Therapy of Teicoplanin for Neonates and Children” (Antimicrobial Agents and Chemotherapy, 2017).

Key:
[1] = BestDose multiple-model Bayesian adaptive dose optimization software, individual simulations for an infant and an older child; design: species or system human; settings: trapezoidal approximation to hourly software predictions
Source text: We incorporated the final population PK model into a teicoplanin multiple-model Bayesian adaptive dosing controller (the software “cartridge”). The controller is based on the concepts and software (BestDose) developed by the University of Southern California Laboratory for Applied Pharmacokinetics and Bioinformatics (LAPKB) (http://www.lapk.org) ([35], [36]). The teicoplanin cartridge included the final structural model equations relating input (dosing information) to output (concentrations of the drug in plasma) and the discrete joint probability distribution of the values of the equation variables (PK parameters) in the population, consisting of a discrete number of support points and their associated probabilities (the Bayesian prior). […]
The dose optimization software was tested by comparing the estimated predicted PK profile plot against the observations, as well as by the linear regression of the observed-versus-predicted concentrations for each individual patient. From the predicted concentrations based on the median individual Bayesian posterior parameter distribution, we calculated the bias, which is equal to the mean weighted predicted error (∑ wpe/N), where wpe is (predicted concentration − actual concentration)/(SD for each prediction/observation), N is the number of observations, and the percentage of bias. […]

[2] = Nonparametric population PK model (two-compartment, allometric, renal function) fitted to plasma teicoplanin concentrations in neonates, infants and children; format: in vivo, human; settings: final model
Source text: Pharmacokinetic data from 57 children (39 children aged 1 month to 16 years old and 18 neonates with a postmenstrual age [PMA] between 26 and 44 weeks) were available for model building. Patients were prospectively enrolled from two different hospitals in Liverpool (Alder Hey NHS Children's Foundation Trust and Liverpool Women's Hospital) over a 21-month period (April 2013 and January 2015). These PK data have been reported previously in two separate population models ([1], [2]). […] Such an approach avoids the problem of having multiple pharmacokinetic models for the same drug, each with an arbitrarily chosen cutoff value for age or size.
Neonates with a PMA of ≤44 weeks received a loading dose of 16 mg/kg, followed by 8 mg/kg once daily via a 30-min intravenous (i.v.) infusion. Children >1 month old received three loading dosages of 10 mg/kg every 12 h, followed by 10 mg/kg once daily via an i.v. bolus infusion (2 to 5 min), according to the dosages currently recommended by the SPC ([11]). Plasma samples were collected during the first dosage interval and then at steady state (1, 3, 6, and 24 h postdose) on days 3 to 7 of therapy. Neonates weighing <1,000 g contributed two samples per dosing interval because of constraints on sample volume. The duration of the treatment course was at the discretion of the treating physician. All patients received teicoplanin for proven or suspected methicillin-resistant staphylococcal sepsis (due to either coagulase-negative staphylococci [CoNS] or MRSA) and/or central-line-associated bloodstream infection. Demographic variables included weight, height, age in years, PMA in weeks, postnatal age (PNA) in days, serum albumin concentration (in grams per liter), and serum creatinine concentration. The estimated glomerular filtration rate (eGFR) (Schwartz-Haycock) ([28]) was also available for each patient.
Teicoplanin concentrations were measured using a commercially available fluorescence polarization immunoassay (FPIA; Thermo Fisher Scientific, Germany). The limit of quantification (LOQ) was <3.0 mg/liter. The dynamic range was 3 to 100 mg/liter, and overall precision (intra- and interday variability) was <6%.
A PK model was fitted to the data using Pmetrics, version 1.4.2 for R, statistical package 3.2.2, which utilizes the nonparametric adaptive grid (NPAG) algorithm ([29]). The inverse of the estimated assay variance was used to weight the data. Initially, a standard two-compartment model with time-delimited zero-order i.v. input and first-order elimination from the central compartment was developed. The standard model is described by differential equations 1a and 1b below: (1a) dX(1)/dt=R(1)−(Kcp+Cl/V)⋅X(1)+[Kpc⋅X(2)] (1b) dX(2)/dt=Kcp⋅X(1)−Kpc⋅X(2) where X(1) and X(2) represent the amounts of teicoplanin (in milligrams) in the central (c) and peripheral (p) compartments, respectively; R(1) is the rate of infusion of the drug into the central compartment (in milligrams per hour); clearance (Cl) from the central compartment is measured in liters per hour; volume (V) is measured in liters; and the central and peripheral compartments are connected by the first-order rate constants Kcp and Kpc (measured per hour).
In neonates and children, clearance generally scales with size in a nonlinear manner that is best described using a power function. A scaling exponent of 0.75 is most frequently used (i.e., clearance is proportional to weight^0.75). In addition, physiological maturation may also affect clearance, and this is especially important for neonates and young infants ([30], [31]). In the model-building process, we switched from using clearance to using Ke (measured per hour) as the first-order elimination rate constant, where Ke is calculated as Cl/V and is proportional to weight^−0.25. While it is possible to estimate the scaling exponents directly, we chose to fix these values as previously described by others ([24], [30], [31]). […]

Median (range) 24-h AUC along the treatment course ([1]; Patient 1 (infant, 5 months, 6.3 kg, eGFR 63.84 ml/min/1.73 m^2)): 493.8 (355.8–574) mg · h/liter
Median (range) 24-h AUC along the treatment course ([1]; Patient 2 (child, 16.3 kg, eGFR 108.41 ml/min/1.73 m^2)): 368.1 (318.9–388.4) mg · h/liter
V01, weight-standardized volume of the central compartment (V0), mean ([2]; n = 57, occasion 1 (<96 h), Volume = V0 · (wt/70), population mean): 22.636 L
V01, weight-standardized volume of the central compartment (V0), median ([2]; n = 57, occasion 1 (<96 h), Volume = V0 · (wt/70), population median): 19.52 L
Ke01, weight-standardized elimination rate constant (Ke0), median ([2]; n = 57, occasion 1 (<96 h), standardized to 70 kg, Ke = Ke0 · (wt/70)^−0.25 · Renal, population median): 0.03 h⁻¹
Ke02, weight-standardized elimination rate constant (Ke0), mean ([2]; n = 57, occasion 2 (samples ≥96 h), standardized to 70 kg, population mean): 0.036 h⁻¹
V02, weight-standardized volume of the central compartment (V0), mean ([2]; n = 57, occasion 2 (≥96 h), Volume = V0 · (wt/70), population mean): 22.472 L
V02, weight-standardized volume of the central compartment (V0), median ([2]; n = 57, occasion 2 (≥96 h), Volume = V0 · (wt/70), population median): 22.7 L
Ke02, weight-standardized elimination rate constant (Ke0), median ([2]; n = 57, occasion 2 (≥96 h), standardized to 70 kg, population median): 0.025 h⁻¹
pw, power function (Renal = eGFR^pw), mean ([2]; n = 57, patients >3 months old, population mean): 0.125
pw, power function (Renal = eGFR^pw), median ([2]; n = 57, patients >3 months old, population median): 0.07
Kcp, first-order intercompartmental rate constant, mean ([2]; n = 57, population mean): 0.490 h⁻¹
Kpc, first-order intercompartmental rate constant, mean ([2]; n = 57, population mean): 0.214 h⁻¹
Kcp, first-order intercompartmental rate constant, median ([2]; n = 57, population median): 0.23 h⁻¹
Kpc, first-order intercompartmental rate constant, median ([2]; n = 57, population median): 0.12 h⁻¹
Ke01, weight-standardized elimination rate constant (Ke0), mean ([2]; n = 57 neonates and children, i.v., occasion 1 (samples <96 h after treatment initiation), standardized to 70 kg, Ke = Ke0 · (wt/70)^−0.25 · Renal, population mean): 0.038 h⁻¹
Substance: teicoplanin
